Results published in patent US5446157A, “Boron difluoride compounds useful in photodynamic therapy and production of laser light” (priority 1993, dated 1995).
“And” between values parts separate entries of the source, which are not always exact repeats. Identical values can stand only once. “Also recorded” adds a separate entry of the source. Counter-ions that a name gives are not always drawn.

Columns and labels:
[1] = UV light absorption (λmax, log ε); assay type: physicochemical; settings: for log ε: solvent as for λmax (ethanol except where noted)
Method: Each recorded UV absorption was restricted to the highest wave length. Fluorescence quantum yields of the dyes were determined for ethanol solutions with excitation at 450 and 460 nm by reference to acridine orange, .PHI.0.46, in ethanol; for the dye 7p the reference was R-6G, <P 0.90. […] Melting points were obtained from a Mel-Temp II device and were uncorrected. The solvent for ^1 H NMR spectra was chloroform-d with tetramethylsilane as an internal standard. Elemental analyses were obtained from Midwest Micro Lab, Indianapolis, Ind. and Galbraith Laboratories, Inc., Knoxville, Tenn. Solvents were removed by rotary evaporation under reduced pressure unless indicated otherwise. Column chromatography was performed on silica gel.
5 × 10^-6 M in ethanol except where noted otherwise.

[2] = Fluorescence (λf, quantum yield); assay type: physicochemical; settings: for .PHI.f (fluorescence quantum yield): ethanol, excitation 450 and 460 nm, reference acridine orange
Method: Instruments for spectroscopic measurements included: Perkin-Elmer 1600 FTIR, Varian Gernini 300 NMR, Hewlett-Packard 5985 (70 eV) GC-MS, Cary 17 (UV), and Perkin-Elmer LS-5B Luminescence spectrometer. A dye laser was constructed and operated in the non-flowing (static) mode and had no tuning capability. […] Laser energy outputs were measured with an accuracy of ±5% by a Scientech 365 power and energy meter.
Light absorption, luminescence, and laser activity properties for the dyes 7 are described in Table VI. Each recorded UV absorption was restricted to the highest wave length. Fluorescence quantum yields of the dyes were determined for ethanol solutions with excitation at 450 and 460 nm by reference to acridine orange, .PHI.0.46, in ethanol; for the dye 7p the reference was R-6G, <P 0.90. Melting points were obtained from a Mel-Temp II device and were uncorrected. The solvent for ^1 H NMR spectra was chloroform-d with tetramethylsilane as an internal standard. Elemental analyses were obtained from Midwest Micro Lab, Indianapolis, Ind. and Galbraith Laboratories, Inc., Knoxville, Tenn. Solvents were removed by rotary evaporation under reduced pressure unless indicated otherwise. Column chromatography was performed on silica gel. Molecular weights were confirmed by EI-MS for the pyrrole 4j 193 and for laser dyes 7d 346, 7e 374, 7g 374, 7i 342, 7j 314 and 7x 360. IR absorption data satisfactorily supported structure assignments for the laser dyes 7.
^[b] 2 × 10^-4 M in ethanol except where noted otherwise.

| SMILES | log ε [1] | .PHI.f (fluorescence quantum yield) [2] | λmax ([1]; 5 × 10^-6 M in ethanol) | λf ([2]; 2 × 10^-4 M in ethanol) | also measured |
| --- | --- | --- | --- | --- | --- |
| CCOC(=O)C1=C(C)C2=C(C#N)c3c(C)c(C(=O)OCC)c(C)n3[B-](F)(F)[N+]2=C1C [Compound 7aa, diethyl 1,3,5,7-tetramethyl-8-cyanopyrromethene-2,6-dicarboxylate-BF2 complex] | 4.98 | 0.82 |  |  | λmax ([1]; 2 × 10^-4 M in p-dioxan): 556 nm; λf ([2]; 2 × 10^-4 M in p-dioxan): 589 nm |
| CCC1=C(C)C2=C(C#N)c3c(C)c(CC)c(C)n3[B-](F)(F)[N+]2=C1C [Compound 7bb, 1,3,5,7-Tetramethyl-2,6-diethyl-8-cyanopyrromethene-BF2 complex] | 4.72 | 0.55 |  |  | λmax ([1]; 2 × 10^-4 M in p-dioxan): 580 nm; λf ([2]; 2 × 10^-4 M in p-dioxan): 620 nm |
| CCCC1=C(C)C2=C(C)c3c(C)c(CCC)c(C)n3[B-](F)(F)[N+]2=C1C [Compound 7d, 2,6-Di-n-propyl-1,3,5,7,8-pentamethylpyrromethene-BF2 complex] | 4.89 | 0.99 | 517 nm | 549 nm |  |
| CCCCC1=C(C)C2=C(C)c3c(C)c(CCCC)c(C)n3[B-](F)(F)[N+]2=C1C [Compound 7e] | 4.92 | 0.90 | 518 nm | 550 nm |  |
| CC1=C(C(C)C)C(C)=[N+]2C1=C(C)c1c(C)c(C(C)C)c(C)n1[B-]2(F)F [Compound 7f] | 4.85 | 0.67 | 516 nm | 548 nm |  |
| CC1=C(C(C)(C)C)C(C)=[N+]2C1=C(C)c1c(C)c(C(C)(C)C)c(C)n1[B-]2(F)F [Compound 7g] | 4.83 | 0.77 | 525 nm | 567 nm |  |
| CC1=C2C=C3CCCCC3=[N+]2[B-](F)(F)n2c1cc1c2CCCC1 [Compound 7h, 2,3,6,7-bistetramethylene-8-methylpyrromethene-BF2 complex] | > 4.8 and 4.93 |  | 535 nm | 560 nm |  |
| CC1=C2CCCCC2=[N+]2C1=C(C)c1c(C)c3c(n1[B-]2(F)F)CCCC3 [Compound 7i] | > 4.8 and 4.91 |  | 522 nm | 552 nm |  |
| CC1=C2C3=C(CCC3)C(C)=[N+]2[B-](F)(F)n2c(C)c3c(c21)CCC3 [Compound 7j, 1,2,6,7-bistrimethylene-3,5,8-trimethylpyrromethene-BF2 complex] | > 4.8 and 4.82 |  | 512 nm | 535 nm |  |
| CCC1=C(CC)C(C)=[N+]2C1=C(C)c1c(CC)c(CC)c(C)n1[B-]2(F)F [Compound 7k, 1,2,6,7-tetraethyl-3,5,8-trimethylpyrromethene BF2 complex] | 4.89 | 0.75 | 521 nm | 554 nm |  |
| CC1=C(c2ccccc2)C(C)=[N+]2C1=C(C)c1c(C)c(-c3ccccc3)c(C)n1[B-]2(F)F [Compound 7l] | 4.90 | 0.43 | 519 nm | 559 nm |  |
| CC(=O)NC1=C(C)C2=C(C)c3c(C)c(NC(C)=O)c(C)n3[B-](F)(F)[N+]2=C1C [Compound 7m] | 4.63 | 0.17 |  |  | λmax ([1]; 5 × 10^-6 M in trifluoroethanol): 498 nm; λf ([2]; 2 × 10^-4 M in trifluoroethanol): 542 nm |
| COC1=C(C)C(C)=[N+]2C1=C(C)c1c(OC)c(C)c(C)n1[B-]2(F)F [Compound 7n, 1,7-dimethoxy-2,3,5,6,8-pentamethylpyrromethene-BF2 complex] | 4.85 | 0.84 | 485 nm | 522 nm |  |
| CCC1=C(C)C2=C(CC)c3c(C)c(CC)c(C)n3[B-](F)(F)[N+]2=C1C [Compound 7o, 1,3,5,7-tetramethyl-2,6,8-triethylpyrromethene-BF2 complex] | 4.92 | 0.84 | 520 nm | 546 nm |  |
| CCC1=C(C)C2=C(C(C)C)c3c(C)c(CC)c(C)n3[B-](F)(F)[N+]2=C1C [Compound 7p, 1,3,5,7-tetramethyl-2,6-diethyl-8-isopropylpyrromethene-BF2 complex] | 4.84 |  | 527 nm | 562 nm | fluorescence [2]: large reduction in fluorescence; also recorded: absence of fluorescence; .PHI.f ([2]; with reference to R-6G .PHI. 0.90): 0.07 |
| CCC1=C(C)C2=C(C3CCCCC3)c3c(C)c(CC)c(C)n3[B-](F)(F)[N+]2=C1C [Compound 7q, 1,3,5,7-tetramethyl-2,6-diethyl-8-cyclohexylpyrromethene-BF2 complex] | 4.81 | 0.23 | 516 nm | 526 nm |  |
| CCC1=C(C)C2=C(COC(C)=O)c3c(C)c(CC)c(C)n3[B-](F)(F)[N+]2=C1C [Compound 7r] | 4.89 | 0.74 | 543 nm | 575 nm |  |
| CCC1=C(C)C2=C(c3ccc(N(C)C)cc3)c3c(C)c(CC)c(C)n3[B-](F)(F)[N+]2=C1C [Compound 7s] | 4.95 | 0.04 | 519 nm | 575 nm |  |
| COc1ccc(C2=C3C(C)=CC(C)=[N+]3[B-](F)(F)n3c(C)cc(C)c32)cc1 [Compound 7t, 1,3,5,7-tetramethyl-8-p-methoxyphenylpyrromethene-BF2 complex] | 4.86 | 0.63 | 497 nm | 521 nm |  |
| CCC1=C(c2ccccc2)C2=Cc3c(-c4ccccc4)c(CC)c(C)n3[B-](F)(F)[N+]2=C1C [Compound 7u] | 5.00 | 0.60 | 540 nm | 564 nm |  |
| CC1=[N+]2C(=Cc3c(-c4ccccc4)c(-c4ccccc4)c(C)n3[B-]2(F)F)C(c2ccccc2)=C1c1ccccc1 [Compound 7v, 1,2,6,7-tetraphenyl-3,5-dimethylpyrromethene-BF2 complex] | 4.91 | 0.69 | 552 nm | 590 nm |  |
| CC1=[N+]2C(=Cc3c(-c4ccccc4)cc(C)n3[B-]2(F)F)C(c2ccccc2)=C1 [Compound 7w, 1,7-diphenyl-3,5-dimethylpyrromethene-BF2 complex] | 4.92 | 0.61 | 521 nm | 551 nm |  |
| CCC1=C(C)C(=Cc2[nH]c(C)c(CC)c2C)N=C1C [Compound 9, 3,5,3',5'-tetramethyl-4,4'-diethylpyrromethene hydrobromide, reference compound] |  |  |  |  | .PHI.f ([2]; solvent not stated): 4.3×10^-4 |
| CCC1=C(C)C2=Cc3c(C)c(CC)c(C)n3[B-](CC)(CC)[N+]2=C1C [Compound 10, 1,3,5,7-tetramethyl-2,6-diethylpyrromethene-B(CH2 CH3)2 complex, reference compound] |  |  |  |  | .PHI.f ([2]; solvent not stated): 0.31 |
| CCC1=C(C)C2=Cc3c(C)c(CC)c(C)n3[B-](F)(F)[N+]2=C1C [Compound 11] |  |  |  |  | .PHI.f ([2]; solvent not stated): 0.81 |
| Cc1nc2n(c1C)[B-](F)(F)[n+]1c-2[nH]c(C)c1C [Compound 21-BF3] |  |  |  |  | .THETA.f ([2]; Lewis acid salt 21-BF3): 0.93; λf ([2]; Lewis acid salt 21-BF3): 377 nm |
